Laboratory results as given in a melting point compilation (Tetko et al.; mined from patent text by program, amines drawn as free bases though some values may be those of a salt).

| melting point | Structure (SMILES) |
| --- | --- |
| 225 to 227 °C | COc1ccc(C(=O)Nc2c(C)c(C)c3oc(C)c(-c4ccc(F)cc4)c3c2C)cc1 |
| 108 to 112 °C | O=C(OCc1ccccc1)C1CCCc2[nH]c3ccccc3c21 (stereo not drawn) |
| 126 to 127 °C | OCc1nn(-c2ccc(Br)cc2)c2c1CCCC2 |
| 103 to 106 °C | CCCCCCCCCCCCc1nnn(CC(=O)Nc2ccc(F)cc2F)n1 |
| 106 to 107 °C | Cc1cc(C)nc(S(=O)(=O)c2ccccc2)c1 |
| 170 to 171 °C | CC1(C)Cc2ccc(C#N)cc2N(C(=O)Nc2ccccc2)C1 |
| 70 to 71 °C | CCCCC[C@H](O)c1ccc(Br)cc1 |
| 83 to 85 °C | O=C(C1=C(c2ccc(O)cc2)CCc2ccccc21)c1ccc(OCCN2CCCCC2)cc1 |
| 220 to 223 °C | CCOCc1nc2c(N)nc3ccccc3c2n1CCCC(C)=NO |
| > 250 °C | O=[N+]([O-])c1ccc2c(c1)Sc1cc(I)ccc1N2 |
| 108 to 109 °C | CCCC(CCC)NC(=O)c1ccc2oc(CCl)nc2c1 |
| 107 to 108 °C | NC(CO)C(c1ccccc1)c1ccccc1 (stereo not drawn) |
| 144 °C | COc1cc2c(cc1OC)CN(CCCCc1ccc(NC(=O)c3cnc4ccccc4n3)cc1)CC2 |
| 65.5 to 66 °C | CCCCCCCCCCc1ccc2cc(O)c(SC)cc2c1 |
| 55 to 56 °C | CCOc1ccc(NC(=O)OC(C)(C)C)c(C)c1 |
| 157 to 158 °C | CC(C)(C)c1csc(-c2nc(Cl)c(Cl)[nH]2)n1 |
| 63 to 64 °C | O=C(c1ccc2ncsc2c1)N1CCC[C@H](c2nc(-c3ccc(F)cc3)no2)C1 |
| 151 to 153 °C | O=C1N(Cc2nnc(-c3ccccc3)o2)c2ccccc2C12COc1cc3c(cc12)OCO3 (stereo not drawn) |
| 107 to 108 °C | Cc1cc(NS(=O)(=O)c2ccccc2)no1 |
| 141 to 144 °C | N#CCOC(=O)c1ccc(CNC(=O)CCCCCN2C(=O)C=CC2=O)cc1O |
| 57 to 59 °C | O=Cc1ccc(C(F)(F)F)cc1Oc1ccccc1 |
| 105 to 107 °C | COC(=O)C(Cc1ccc(-c2nc3ccc(OC)cc3n2C)cc1)N=[N+]=[N-] (stereo not drawn) |
| 33 to 34 °C | ClCCCSc1nnnn1-c1ccccc1 |
| 151 to 154 °C | C/C(=C(\C#N)C(N)=S)N1CCC(Cc2ccccc2)CC1 |
| 151 °C | C[C@@H]1OC(P(=O)(O)O)=CC[C@@]1(O)n1cnc2c(N)ncnc21 |

| melting point | Structure (SMILES) |
| --- | --- |
| 84 to 86 °C | Cc1cccc(-c2[nH]c(C(C)C)nc2-c2cccc(-c3ccncc3)c2)n1 |
| 158 to 159 °C | COC(=O)c1c(C(=O)OC)c(-c2ccc(OC)c(OC)c2)c2cc3c(cc2c1O)OCO3 |
| 48 to 49 °C | CC(C)[C@H]1CC[C@H](C(=O)COS(=O)(=O)c2ccccc2)CC1 |
| 172 to 174 °C | COc1cc(C2=NC(C)(C)CO2)cc(OC)c1Br |
| 49 to 52 °C | COC(=O)NCc1cccc(-c2ccccc2)c1 |
| 122 to 124 °C | CCOCc1nc2c(N)nc(C)c(C)c2n1CCOCC#Cc1cncnc1 |
| 157 to 159 °C | CC(=O)N1c2cc(Cl)ccc2Sc2ccc(C(C)N(O)C(N)=O)cc21 (stereo not drawn) |
| 260 to 263 °C | CNC(=O)c1cn(C)c2cc(Cl)ccc2c1=O |
| 172 to 175 °C | CN1CCC(c2cc(F)ccc2F)(S(=O)(=O)c2ccc(Cl)cc2)CC1 |
| 90 to 92 °C | COc1ccc(-n2cc(C(F)(F)F)nc2-c2ccc(OC)nc2)cc1 |
| 71 to 72 °C | CN(CC1CCCCC1)C(=O)c1ccc2nonc2c1 |
| 135 to 136 °C | COc1cc2ncnc(N3CCN(C(=O)NCc4ccc(C(C)C)cc4)CC3)c2cc1OC |
| 219 to 225 °C | CCOC(=O)C(=O)c1csc(NC(=O)Nc2ccccc2F)n1 |
| > 260 °C | CCc1cc(C(=O)CBr)ccc1O |
| 156 to 158 °C | CC(C)C[C@H](NC(=O)[C@H](Cc1ccccc1)NC(=O)CCC(=O)O)C(=O)O |
| 137 to 140 °C | CCOC(=O)NCC(=O)c1ccc(O)cc1 |
| 138 to 141 °C | CCCOC(=O)C1=C(C)NC(C=O)=C(C(=O)OC)C1c1ccccc1C#N (stereo not drawn) |
| 133 to 135 °C | CC(=O)Oc1cc2occ(C=O)c(=O)c2cc1OC(C)=O |
| 89 to 90 °C | COC(=O)COc1c(CCC(C)C)c(OC)cc(OC)c1C(=O)CCc1ccc(O)c(OC)c1 |
| 128 to 130 °C | O=C(c1cccnc1)N1CCC(c2ccc(F)cc2)=N1 |
| 160 to 163 °C | CC(=O)Nc1ccc(SC2OC(CO)C(O)C(O)C2O)cc1 (stereo not drawn) |
| 69 to 71 °C | CCCCCCCCC(CCC(=O)O)(CCC(=O)O)C(C)=O |
| 170 °C | CCc1nnc(-c2cccc(N(C)C)c2)n1-c1ccc(OC)cc1 |
| 121 to 124 °C | O=C(O)CN(C(=O)CCc1nc2c(F)c(F)cc(F)c2s1)c1ccccc1 |
| 123 to 124 °C | COc1cccc(OC)c1C(=O)C=Cc1ccccc1 |

| melting point | Structure (SMILES) |
| --- | --- |
| 178 °C | O=C1CCC(c2ccccc2)(c2ccccc2)[C@@H]2CN(C(=O)Cc3ccccc3N3CCCC3)C[C@H]12 (racemic) |
| 153 to 155 °C | CCC(C(=O)O)N(C(=O)c1cnn(-c2ccc(F)cc2)c1)c1ccc(OCC(C)(C)C)c(C#N)c1 (stereo not drawn) |
| 137 to 140 °C | Nc1cccnc1N1CCN(C(=O)c2ccc(C(=O)O)cn2)CC1 |
| 181 to 186 °C | CC(C)(C)c1cc(Sc2n[nH]c(=S)s2)cc(C(C)(C)C)c1O |
| 149 °C | FC(F)(F)c1cccc(N2CCN(c3ccc(Cl)nn3)CC2)c1 |
| 59 to 60 °C | CCOC(=O)c1cnc2n(c1=O)CCC2 |
| 51 to 52.5 °C | COC(=O)COCCOc1ccc(N)cc1 |
| 115 °C | CCOc1n[nH]c(=O)n1CC |
| 158 to 160 °C | COc1ccc2c(n1)C1(CO2)C(=O)N(Cc2cnc(C(C)C)s2)c2cccc(Br)c21 (stereo not drawn) |
| 115 to 116 °C | COCOc1ccc(OC(C)C(=O)Nc2ccc(OC(F)(F)F)cc2)cc1 (stereo not drawn) |
| 130 to 132 °C | C#CCCCCCCOC(=O)COc1ccc(F)c(C(N)=O)c1F |
| 169 to 171 °C | CN(C)c1cc(Cl)c(C=O)c(Cl)c1 |
| 101 to 104 °C | Cc1c(CN(C)C)cc(C(C)(C)C)c(O)c1C |
| 191 to 193 °C | CC(C)(C)NC(=O)c1nn(-c2ccc(Br)cc2)c2c1C1CCC2CC1 |
| 84 to 85 °C | CCOC(=O)C=C(C)C=CC=C(C)C=Cc1c(C)cc(C)c(Cl)c1C |
| 115 to 117 °C | Cc1ccc(S(=O)(=O)OCC2Cc3cc(Cl)cc(-c4ccsc4)c3O2)cc1 (stereo not drawn) |
| 64.5 to 66 °C | CSC(=S)C12CC3CC(CC(C3)C1)C2 |
| 197 to 198 °C | COc1ccc(C(O)CN2CC=C(C3=NNC(=O)CS3)CC2)cc1 (stereo not drawn) |
| 205 to 208 °C | Cc1c(-c2cccs2)nn2cc[nH]c12 |
| 137 °C | O=C1c2ccccc2C(=O)N1CCc1cn(C2OCC(O)C(O)C2O)c(=O)[nH]c1=O (stereo not drawn) |
| 89 to 91 °C | COc1ccccc1CN1CCC(CCC(=O)c2ccc(N3CCCC3)cc2)CC1 |
| 222 to 224 °C | O=[N+]([O-])c1cn2c(n1)OC(COc1ccc(-c3csc(Cc4ccc(OC(F)(F)F)cc4)n3)cc1)CC2 (stereo not drawn) |
| 136 to 137 °C | O=[N+]([O-])c1cc(CC(O)(Cn2cncn2)Cn2cncn2)ccc1Cl |
| 174 to 176 °C | CCCc1ccc(C(=O)Nc2ccc(C(C)=O)cc2)cc1 |
| 94 to 95 °C | CC(C)(C)CN(CC(C)(C)C)C(=O)C(O)(C(=O)O)c1ccc(Cl)c(Cl)c1 (stereo not drawn) |

| melting point | Structure (SMILES) |
| --- | --- |
| 148 to 150 °C | COc1ccc(Cl)c(Oc2c(NS(=O)(=O)c3ccc4c(c3)OCO4)ncnc2OCCO)c1 |
| 250 to 251 °C | O=C(c1sc(-c2nc3ccccc3[nH]2)nc1-c1ccco1)C1CCOCC1 |
| 83 °C | Fc1cc(Br)c(OCc2ccccc2)c(Br)c1 |
| 133 °C | COCn1ccnc1C(O)(c1ccc(F)cc1)c1ccc(F)cc1 |
| 187 to 189 °C | CCCC(=O)c1cnc2c(OC)cccc2c1Nc1ccc(CO)cc1 |
| 189 to 190 °C | Cc1sc2ncc(C(=O)/C=C/c3ccccc3)n2c1C |
| 101 to 104 °C | CS(=O)(=O)OCCn1nccc1NC=O |
| 227 to 230 °C | CC(C)OC(=O)N1CCC(c2nc3cc(-c4ccc(C(N)=O)cn4)ccc3o2)CC1 |
| 89 to 91 °C | CCCCCCCN(CCCCCCCCSc1nc(-c2ccccc2)c(-c2ccccc2)[nH]1)C(=O)Nc1ccc(F)cc1F |
| > 260 °C | COC(=O)Cn1c(=O)c(=O)[nH]c2cc(N)c(Cl)cc21 |
| 79 to 81 °C | CC1(C)CC(SCc2c(C(F)(F)F)nn(C(C)(C)C)c2Cl)=NO1 |
| 70 °C | C=C(C)C(=O)OCCCOc1ccc(-c2cc(OC(=O)C(=C)C)cc(-c3ccc(OCCOC(=O)C(=C)C)cc3)c2)cc1F |
| 166 to 171 °C | CCCCCCCCCCCCCCOC(=O)n1cc(-c2ccccc2)nc1O |
| 191 to 193 °C | CC1=C(C(=O)NC(C)(C)C)C(c2ccccc2Cl)C(C(=O)NC(C)C)=C(COCCn2c(C)nc3ccccc32)N1 (stereo not drawn) |
| 98 °C | COc1ccc(C(=O)c2ccc(Cl)cc2Cl)cc1Cl |
| 169 to 172 °C | Cc1c(C(=O)NC2CCN(Cc3ccccc3)CC2)c2cc(F)ccc2n1C |
| 261 to 262 °C | CC(C)CC(NC(=O)c1ccc(F)cc1SSc1cc(F)ccc1C(=O)NC(CC(C)C)C(=O)O)C(=O)O (stereo not drawn) |
| 171 to 173 °C | CC(C)(C)c1cc(NC(=O)Nc2cccc(Cl)c2Cl)c(-c2ccccc2)s1 |
| 185 to 187 °C | CC1(C)C(=O)Nc2ccccc2C1(O)c1ccccc1 (stereo not drawn) |
| 119 to 124 °C | CN(C)c1ccc(N=Nc2ccccc2C(=O)NCCN)cc1 |
| 92 °C | Cc1cc(-n2ccnc2)c2cccc(OCc3c(Cl)ccc(S(=O)(=O)N4CCC[C@H]4C(=O)N(C)CCCN(C)CCCO)c3Cl)c2n1 |
| 193 to 194 °C | CCOC(=O)C(C)CSCC(NC(=O)CCC(N)C(=O)O)C(=O)NCC(=O)O (stereo not drawn) |
| 235 to 236 °C | CCSc1cccc2c1C(=O)c1cccc(SCC)c1C2=O |
| 236 to 237 °C | CCn1cc(C(=O)O)c(=O)c2cc(F)c(N3CCN(S(=O)(=O)c4ccc(C)cc4)CC3)c(F)c21 |

| Structure (SMILES) | melting point |
| --- | --- |
| CC1C(=O)N(C)C(=O)N(C)C1=O | 83 to 85 °C |
| BrCc1nc2cc(Br)ccc2s1 | 107 °C |
| CC(=O)c1c(C#N)nn(-c2c(Cl)cc(C(F)(F)F)cc2Cl)c1N | 200 to 201 °C |
| Cc1cccc(OC2CCN(CCc3c[nH]c4ccccc34)CC2)c1 | 145 to 146 °C |
